Assay results from US11006626B2, “Compounds for protection of cells” (Sulfateq B.V., priority 2012, dated 2021).

How the values were obtained:
[1] = test system: blood platelets; assay: Cold storage of PRP blood platelets, aggregation of thrombocytes after storage; type: cell-based; parameters: key: − means that most of the thrombocytes were aggregated; a + indicates that a few cells were still viable but some cells aggregated; a ++ indicates that almost all cells were viable; conditions: 30 mM; PRP platelets stored at 4° C.; 264 hours
Procedure: PRP platelets were harvested and 2.1 ml was suspended in Poly Propylene tubes of 5 ml, closed with a stop.
Several compounds according to the invention were added to the blood platelets directly after preparing the PRP plasma and incubated during 10 minutes at 37° C. or 30 minutes at room temperature. The blood platelets with the compound were then stored at 4° C.
A control was stored under shaking conditions at room temperature. Another control was stored at 4° C. without the addition of a compound.
A sample was taken out of each tube after 264 hours after addition of the compound and tested as follows: • The color and coagulation properties were visually analysed. • The thrombocyte cells that survived were counted and it was evaluated whether the thrombocytes were aggregated. • It was evaluated if the thrombocytes still were able to function after stimulation by the addition of ADP or under influence of collagen in a 96 well plate. • The adhesion was evaluated, meaning the ability of the platelets to bind collagen in a 6 well plate preincubated with collagen. • Via an ELISA assay, it was evaluated whether thromboxane was secreted from the platelets. Thromboxane facilitates aggregation and is produced by activated blood platelets.
Table 3 provides an overview of the results of the addition of the compounds to the blood platelets and evaluates the aggregation of the thrombocytes after addition of the compound according to the invention and cooling until 4° C.

[2] = test system: apherese blood platelets; assay: Apheresis platelets stored with Sul 136, platelet aggregation (Platelet Aggregation Profiler PAP 8); type: cell-based; conditions: for Platelet aggregation ADP (%) / Platelet aggregation Collagen (%): stored at 4° C. with Sul 136
Procedure: 300 μM suspension of Sul 136 is added with a procedure, which keeps the bag content sterile and the Sul 136 is kept in suspension by frequent whirling and stored at 37° C. before it is added to the freshly harvested platelets. The Sul 136 suspension is added to three platelet bags directly from the bag. After addition, the content of the platelet bag is gently mixed. After 2 hours the first sample is drawn with a seal-docked sample bag. The sample bag is disconnected by welding and from this sample bag the samples are taken for hematology analyzing, aggregometer tests and the flow-cytometry tests. Swirling in the bag is reported by experience of the laboratory worker in the standard format. Platelets without Sul 136 put on a flatbed shaker and stored at room temperature were used as control. Another control is stored at 4° C. Platelet samples in which Sul 136 is added, are stored without shaking in a refrigerator at 4° C.
Platelet aggregation was measured according to Platelet Aggregation Profiler PAP 8 (Mölab) using all reagents from Mölab.
3 ml platelet concentrate was centrifuged at 3000 RPM to get PPP. 1800 μl PPP and 600 μl PRP were mixed.
225 μl PRP was brought in test tube with magnetic stirrer. 225 μl PPP+25 μl aquadest was brought in test tube without magnetic stirrer. PPP was used for basis. PRP was put during 2 min at 37° C. on a roller. Measurement with PRP in aggregometer was started after 30 seconds with 25 μl inductor. Measurement was performed during 6 min.

Cc1c(C)c2c(c(C)c1O)CCC(C)(C(=O)N1CCN(CC(=O)O)CC1)O2 (racemic) [SUL - 136, 2-(4-(6-hydroxy-2,5,7,8-tetramethylchroman-2-carbonyl)piperazin-1-yl)acetic acid]
Aggregation of blood platelets after storage [1]: +
Platelet aggregation ADP (%) ([2]; Donor 2, Day 1): 0%
Platelet aggregation Collagen (%) ([2]; Donor 2, Day 1): 0%
Platelet aggregation ADP (%) ([2]; Donor 2, Day 2): 0%
Platelet aggregation Collagen (%) ([2]; Donor 2, Day 2): 0%
Platelet aggregation ADP (%) ([2]; Donor 2, Day 3): 0%
Platelet aggregation Collagen (%) ([2]; Donor 2, Day 3): 4%
Platelet aggregation ADP (%) ([2]; Donor 2, Day 5): 0%
Platelet aggregation Collagen (%) ([2]; Donor 2, Day 5): 0%
Platelet aggregation ADP (%) ([2]; Donor 2, Day 8): 0%
Platelet aggregation Collagen (%) ([2]; Donor 2, Day 8): 0%
Platelet aggregation ADP (%) ([2]; Donor 2, Day 10): 0%
Platelet aggregation Collagen (%) ([2]; Donor 2, Day 10): 0%
Platelet aggregation ADP (%) ([2]; Donor 2, Day 12): 0%
Platelet aggregation Collagen (%) ([2]; Donor 2, Day 12): 5%
Platelet aggregation ADP (%) ([2]; Donor 2, Day 19): 0%
Platelet aggregation Collagen (%) ([2]; Donor 2, Day 19): 0%
Platelet aggregation ADP (%) ([2]; Donor 3, Day 1): 0%
Platelet aggregation Collagen (%) ([2]; Donor 3, Day 1): 0%
Platelet aggregation ADP (%) ([2]; Donor 3, Day 2): 0%
Platelet aggregation Collagen (%) ([2]; Donor 3, Day 2): 0%
Platelet aggregation ADP (%) ([2]; Donor 3, Day 3): 0%
Platelet aggregation Collagen (%) ([2]; Donor 3, Day 3): 0%
Platelet aggregation ADP (%) ([2]; Donor 3, Day 5): 6%
Platelet aggregation Collagen (%) ([2]; Donor 3, Day 5): 0%
Platelet aggregation ADP (%) ([2]; Donor 3, Day 8): 0%
Platelet aggregation Collagen (%) ([2]; Donor 3, Day 8): 0%
Platelet aggregation ADP (%) ([2]; Donor 3, Day 10): 0%
Platelet aggregation Collagen (%) ([2]; Donor 3, Day 10): 0%
Platelet aggregation ADP (%) ([2]; Donor 3, Day 12): 0%
Platelet aggregation Collagen (%) ([2]; Donor 3, Day 12): 8%
Platelet aggregation ADP (%) ([2]; Donor 3, Day 19): 0%
Platelet aggregation Collagen (%) ([2]; Donor 3, Day 19): 0%
platelet aggregation upon stimulation with collagen and ADP ([2]; donor 1, day 12 and day 19, stored at 4° C.): restored
Platelet aggregation ADP (%) ([2]; donor 1, Day 1): 0%
Platelet aggregation Collagen (%) ([2]; donor 1, Day 1): 0%
Platelet aggregation ADP (%) ([2]; donor 1, Day 2): 0%
Platelet aggregation Collagen (%) ([2]; donor 1, Day 2): 0%
Platelet aggregation ADP (%) ([2]; donor 1, Day 3): 0%
Platelet aggregation Collagen (%) ([2]; donor 1, Day 3): 0%
Platelet aggregation ADP (%) ([2]; donor 1, Day 5): 0%
Platelet aggregation Collagen (%) ([2]; donor 1, Day 5): 0%
Platelet aggregation ADP (%) ([2]; donor 1, Day 8): 0%
Platelet aggregation Collagen (%) ([2]; donor 1, Day 8): 0%
Platelet aggregation ADP (%) ([2]; donor 1, Day 10): 0%
Platelet aggregation Collagen (%) ([2]; donor 1, Day 10): 0%
Platelet aggregation ADP (%) ([2]; donor 1, Day 12): 12%
Platelet aggregation Collagen (%) ([2]; donor 1, Day 12): 17%
Platelet aggregation ADP (%) ([2]; donor 1, Day 19): 31%
Platelet aggregation Collagen (%) ([2]; donor 1, Day 19): 32%
